# Data taken from PubChem BioAssay (NCI).
#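 Assay format: 96-well plates, 48-hour exposure. Here, GI50 denotes the concentration required for 50% inhibition of growth. TGI denotes the concentration required for complete inhibition of growth.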
# Assays:
# Experiment in all cases: inhibition of tumour cell growth, NCI panel, 48 h
# [1] = test system: HCT-15 colon
# [2] = test system: RPMI-8226 leukemia
# [3] = test system: K-562 leukemia
# [4] = test system: UACC-62 melanoma
# [5] = test system: MOLT-4 leukemia
# [6] = test system: SW-620 colon
# [7] = test system: ACHN renal
# [8] = test system: SF-268 CNS
# [9] = test system: NCI-H23 lung
SMILES,TGI [1] [µM],TGI [2] [µM],TGI [3] [µM],TGI [4] [µM],TGI [5] [µM],TGI [6] [µM],TGI [7] [µM],TGI [8] [µM],GI50 [9] [µM],TGI [9] [µM],GI50 [1] [µM],GI50 [4] [µM],GI50 [6] [µM],GI50 [7] [µM],GI50 [8] [µM],GI50 [2] [µM],GI50 [3] [µM],GI50 [5] [µM]
O=C1/C(=N\O)c2ccccc2S1(=O)=O,> 100,> 100,> 100,> 100,> 100,> 100,> 100,> 100,,,,,,,,,,
c1ccc([CH2][Sn]([CH2]c2ccccc2)([O]c2cccc3cccnc23)[O]c2cccc3cccnc23)cc1,1.37,,,0.447,,0.376,2.2,7.04,0.508,1.84,0.394,0.178,0.188,1.03,1.2,,,
O=S(=O)([O-])c1ccc(N=Cc2ccccc2[O-])cc1.O=S(=O)([O-])c1ccc(N=Cc2ccccc2[O-])cc1.[O]=[U+2]=[O],> 100,> 100,> 100,> 100,> 100,> 100,> 100,> 100,> 100,> 100,31.3,> 100,> 100,> 100,> 100,> 100,> 100,64.1
Cc1ccc(S(=O)(=O)c2ccc(NC(=O)SCCC(=O)O)cc2)cc1,> 100,> 100,> 100,> 100,> 100,> 100,> 100,> 100,,> 100,,,,,,,,
COc1ccc2c(c1)[n+]([O-])c(-c1ccc([N+](=O)[O-])cc1)c(N)[n+]2[O-],,,> 100,,> 100,> 100,> 100,> 100,,> 100,,,,,,,,
CN(C)c1ccc(/C=C/C(=O)[O-])cc1.CN(C)c1ccc(/C=C/C(=O)[O-])cc1.[Cu+2],> 100,> 100,> 100,> 62.9,> 100,> 100,> 100,> 100,> 100,> 100,,,,,,,,
COc1c(C)cc(O)cc1C=O,> 100,> 100,> 100,> 100,> 100,> 100,> 100,> 100,,,,,,,,,,
O=[N+]([O-])c1ccc(C2CC(c3ccccc3Cl)=Nc3ccccc3S2)cc1 (stereo not given),10.9,5.14,6.35,16.1,5.37,4.78,42.9,18.9,,10.8,,,,,,,,
COC(=O)C1=Cc2cc(OC)c(OC)c(OC)c2[C@H](c2cc(OC)c(OC)c(OC)c2)C1C(=O)OC (stereo not given in full),> 100,> 100,> 100,> 100,> 100,> 100,> 100,> 100,,> 100,,,,,,,,
N.N.NCCCCCN.O=C([O-])CCl.O=C([O-])CCl.O=C([O-])CCl.O=C([O-])CCl.[Pt+4].[Pt+4],> 100,> 100,> 100,53.9,,> 100,29.9,36.8,,,31.8,0.406,4.58,3.39,2.13,44.9,37.2,
CCOC(=O)C1SC(=Nc2cccc(Cl)c2C)N=C1C (stereo not given),> 10,69.9,89,,78.8,57.5,77.5,> 100,,> 10,,,,,,,,
O=C1CC(c2c(-c3ccccc3)[nH]c3ccccc23)C(=O)N1 (stereo not given),> 100,> 100,> 100,> 100,> 100,> 100,> 100,,,> 100,,,,,,,,
COc1ccc(OC(C)=O)c2c1CCC=CC2=O,30.1,3.96,18.6,26.2,33.1,28.8,32,,,32.8,,,,,,,,
COc1ccccc1NC(=O)C1=C(C)NC(C)=C(C(=O)Nc2ccccc2OC)C1C1=CC=COC1,15,50.1,26,15.5,> 100,22.1,> 100,62.4,,> 100,,,,,,,,
C=C=C(C(=O)OC)S(=O)c1ccccc1[N+](=O)[O-] (stereo not given),> 100,> 100,> 100,> 100,> 100,> 100,> 100,> 100,,> 100,,,,,,,,
COC1OC(CO)C(O)C(OC(C)=O)C1NC(=O)N(CCCl)N=O (stereo not given),,,> 100,> 100,> 100,> 100,> 100,> 100,,> 100,,,,,,,,
C=CC(=O)NCCSCCCOC1(C(=O)O)CC(O)C(NC(C)=O)C(C(O)C(O)CO)O1 (stereo not given),> 100,> 100,> 100,> 100,> 100,> 100,> 100,,,> 100,,,,,,,,
